Assay [1] relates to MAPK phosphorylation. In words: MAPK (ERK1/2) phosphorylation (Western blot) after peptide transfection. The class given is cell-based, human. The conditions noted are these: MCF7, BT474 and MDA-MB-453 cells (FIG. 4A); Herceptin where combined. The method, then:
Peptide transfection. In order to inhibit the p85 and ErbB3 interaction, MCF7, BT474 and MDA-MB-453 cell lines have been transfected using 80, 100, and 180 μg, respectively, of the following phosphopeptides:
Treatments and lmmunodecorations. […] Briefly the cells have been plated at 5×10^5 concentration in 60 mm plates. […] At the end of the treatment the cells have been lysed with RIPA buffer [150 mM NaCl, 1% NP-40, 0,5% sodium deoxycholate (DOC), 0.1% SDS, 50 mM TrisHCl (pH 8), 1 mM PMSF, 1 mM EGTA, 50 mM NaF, 50 mM Na3VO4 and protease inhibitors (Roche, Milano, IT)] in order to analyze the expression levels of phosphorylated and total ErbB-3, ErbB-2, ERK and HSP-70 proteins. In order to analyze the levels of Akt phosphorylation and expression, the cells have been lysed in NP-40 buffer [1% NP-40, 10% glycerol, 137 mM NaCl, 20 mM TrisHCl (pH 7.4), 50 mM NaF, 1 mM PMSF, 5 mM Na3VO4, protease inhibitors (Roche, Milano, IT)]. Cell lysates have been incubated on ice for 20 minutes and centrifuged at 14000 rpm for 20 minutes. RIPA buffer obtained cell extracts have been boiled for 5 minutes at 95° C., while NP40 buffer lysed samples have been boiled at 65° C. for 5 minutes. […] After thorough washing, nitrocellulose peroxidase activity has been detected by chemiluminescence (Lite-blot-Euroclone, Milano, IT)

The target in assay [2] is T1, p85 and p110a (PI3K catalytic sub-unit) interaction (Homo sapiens, UniProt P27986).
T1 construct: Whole cell lysates have been imunoprecipitated with anti-p85 antibody; endogenous in cells; host or cells: MCF7, BT474, MDA-MB-453
T1 sequence (P27986 whole entry): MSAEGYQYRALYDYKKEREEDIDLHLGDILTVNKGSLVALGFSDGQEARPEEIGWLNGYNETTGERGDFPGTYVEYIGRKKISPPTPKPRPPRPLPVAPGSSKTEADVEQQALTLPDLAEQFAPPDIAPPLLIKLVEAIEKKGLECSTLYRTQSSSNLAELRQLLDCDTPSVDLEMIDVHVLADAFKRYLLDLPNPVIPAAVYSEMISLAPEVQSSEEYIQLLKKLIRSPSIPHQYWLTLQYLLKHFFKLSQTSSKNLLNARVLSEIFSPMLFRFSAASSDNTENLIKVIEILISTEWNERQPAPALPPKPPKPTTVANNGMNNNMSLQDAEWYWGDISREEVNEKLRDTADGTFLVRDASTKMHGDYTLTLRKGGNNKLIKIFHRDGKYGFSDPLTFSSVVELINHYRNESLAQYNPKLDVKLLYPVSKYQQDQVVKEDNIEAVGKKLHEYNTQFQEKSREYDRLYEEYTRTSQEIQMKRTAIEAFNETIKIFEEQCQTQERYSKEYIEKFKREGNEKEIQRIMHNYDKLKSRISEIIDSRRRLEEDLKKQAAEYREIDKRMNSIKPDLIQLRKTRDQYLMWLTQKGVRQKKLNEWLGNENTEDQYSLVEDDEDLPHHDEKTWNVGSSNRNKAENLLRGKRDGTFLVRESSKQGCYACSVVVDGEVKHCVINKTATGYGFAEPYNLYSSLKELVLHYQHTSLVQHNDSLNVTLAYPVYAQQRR
In words: Immunoprecipitation with anti-p85, blot anti-p110α, in transfected cells. The conditions noted are these: transfected cells (FIG. 2D). The class given is cell-based. The method, then:
Immunoprecipitation. MCF7, BT474 and MDA-MB-453 cell lines have been plated at 5×10^5 concentration in 60 mm plates. On subsequent day cells have been transfected with 1257 phosphopeptide and contrrol phosphopeptide. After 40 hours the cells have been washed two times with cold PBS and extracted with lysis buffer [(50 mM Tris HCl (pH 7.4), 250 mM NaCl, 0.1% Triton X-100, 5 mM EDTA, 50 mM NaF, 1 mM PMSF, 5 mM Na3VO4 e 50 mmol/L protease inhibitors (Roche, Milan, IT)]. Whole cell lysates have been imunoprecipitated with anti-p85 antibody (#06-496) in the presence of protein G (Pierce, Milan, IT). Whole proteins and immunocomplexes then have been subjected to 8% SDS-PAGE and transferred on nitrocellulose filter. The proteins have been detected by immunodecoration using anti-ErbB3 and anti-p110α antibodies.
The peptide has been transfected using Lipofectamine in all three cell lines. […] This binding is required in order PI3K kinase to be activated.

Assay [3] concerns BT474 cells. Put plainly: Cell death and apoptosis (Trypan Blue exclusion). Type of assay: cell-based, human. The conditions noted are these: BT474 cells vs parental or scr transfected; Herceptin 1 μg/ml 40 hours where combined. The source says: (§1) Cell death and Apoptosis. MCF7, BT474 and MDA-MB-453 cell lines have been plated at 5×10^5 concentration in 60 mm plates. On subsequent day the cells have been transfected with ErbB3 specific interference oligonucleotides or peptides. […] The cells have been washed two times with cold PBS and then trypsin collected. The evaluation of cellular viability has been carried out by means of Trypan Blue exclusion. The use of anti-PARP antibody in Western Blotting analysis allowed apoptosis to be evaluated. Briefly the cells have been lysed in RIPA buffer [150 mM NaCl, 1% NP-40, 0,5% sodium deoxycholate (DOC), 0.1% SDS, 50 mM TrisHCl (pH 8), 1 mM PMSF, 1 mM EGTA, 50 mM NaF, 50 mM Na3VO4 and protease inhibitors (Roche, Milano, IT)]. The samples have been boiled for 5 minutes at 95° C., resolved using SDS-PAGE, transferred on nitrocellulose and blotted using anti-PARP antibody. The tumour cell death analyzed by immunohistochemistry have been obtained using TUNEL assay.

Assay [4] has as its system MCF7 cells. Put plainly: Cell death and apoptosis (Trypan Blue exclusion). The conditions noted are these: MCF7 cells vs parental or scr transfected; Herceptin 1 μg/ml 40 hours where combined. Type of assay: cell-based, human.
Source text: as §1

Assay [5] relates to MCF7 xenograft. Put plainly: Electroporation tumour therapy of MCF7 xenografts. Type of assay: in vivo, SCID mice. The method, then: Xeno-grafts. In vivo tests have been carried out using 40 day old SCID female mice (Harlan Laboratories, Milan, IT). At day 0, animals have been totally anesthetized with intramuscular injection of 400 μg/animal (average weight 25 g) of Zoletil (Virbac) containing 0.12% Xylor (Xylazine), and transplanted subcutaneously (s.c.), in intrascapular mouse region with pellet of […] (1.7 mg/sustained release pellet over 60 days, Innovative Research of America, Sarasota, Fla.). On the next day, 5×10^6 proliferating and scr and 1257 peptide previously transfected, as above described, MCF7 or BT474 cells, have been re-suspended in 0.1 ml of Matrigel (BD Biosciences) and subcutaneously inoculated in each mouse. […] Tumour growth has been monitored two times weekly using calibration along two orthogonal axes: length (L) and […]. The tumour volume (V) has been calculated using the formula V=L*(W2)/2. All the procedures relating to animals and treatment thereof have been carried out according institutional guidelines.
Electroporation tumour therapy. […] A dilute solution of 1257 peptide (75 ug) in 15 ul of sterile PBS has been directly injected in each xenograft, which subsequently has been electrode pulsed. PBS diluted scr peptide has been used as control, according to same procedure. As a further control we have analyzed two groups of not peptide injected animals, except that one of two was subjected to electroporation. Therapy has been repeated once weekly, and tumour size monitored up to 70 days.
Tumour size has been measured at regular intervals (alternate days) using a caliber and tumour volume has been calculated as above described. In order to minimize animal pain during the electroporation, tests have been carried out under total anesthesia. All the procedures concerning animals and treatment thereof have been carried out according to institutional guidelines.
In an attempt to use an experimental approach mimicking human therapy, scr or 1257 phosphopeptides has been administered directly into tumour. The administration of the peptide has been carried out by injection and successive electroporation in order to allow the phosphopeptide penetration. This technique facilitating the drug absorption from the tumour is used for human mainly to treat superficial lesions like melanomas, skin tumours or cutaneous metastases, but currently it is also used for carcinomas during pre-operation sessions. The peptide administration has been carried out when the tumour volume was 200 mm^3.

Assay [6] has as its system BT474 xenograft. In words: Electroporation tumour therapy of BT474 xenografts. The class given is in vivo, SCID mice. The conditions noted are these: Herceptin i.p. (FIG. 11A).
Description: Xeno-grafts. In vivo tests have been carried out using 40 day old SCID female mice (Harlan Laboratories, Milan, IT). At day 0, animals have been totally anesthetized with intramuscular injection of 400 μg/animal (average weight 25 g) of Zoletil (Virbac) containing 0.12% Xylor (Xylazine), and transplanted subcutaneously (s.c.), in intrascapular mouse region with pellet of 17-h-extradiol (1.7 mg/sustained release pellet over 60 days, Innovative Research of America, Sarasota, Fla.). […] Tumour growth has been monitored two times weekly using calibration along two orthogonal axes: length (L) and depth (VV). The tumour volume (V) has been calculated using the formula V=L*(W2)/2.
Electroporation tumour therapy. […] Therapy has been repeated once weekly, and tumour size monitored up to 70 days.
The mark [7] stands for this setting: intra-tumour injection + electroporation once weekly, MCF7.

Non-standard residues stand in square brackets, D forms with d. No end group written: not given here. pY = N[C@@H](Cc1ccc(OP(=O)(O)O)cc1)C(=O)O

On to “RDGGGPGGDpYAAMGACPA (RDGGGPGGD[pY]AAMGACPA; listed as Homo sapiens) [1257 phosphopeptide]”, for which, in assay [1], the MAPK phosphorylation result is on record as “inhibition of MAPK phosphorylation”. In assay [2], the “inhibition of p85 and p110a interaction” value is listed as “inhibits p85 from interacting with p110a”. The “cell death, times higher than controls” value in assay [3] is listed as 4 times. In addition, the “cell death, times higher than controls” value in assay [4] stood at 3 times. Moreover, the “apoptosis in tumours (TUNNEL assay)” value in assay [5] (immunohistochemistry of electroporation treated tumours (FIG. 9A)) is given as “go in apoptosis”. For the same substance, the “proliferation in tumours (Ki67 assay)” value in assay [5] (immunohistochemistry of electroporation treated tumours (FIG. 9B)) is on record as “low proliferating index”. Besides, in assay [5] (setting [7]), the “inhibition of tumour growth compared to control not treated tumours” value is recorded as 58% and the “inhibition of tumour growth compared to scr peptide inoculated tumours” value turned out to be 50%. In assay [6], the “tumour mass compared to not treated control” value is reported as “strongly reduces the tumour mass”.

For the origin of these results see patent US20130259929A1, “USE OF A PHOSPHOPEPTIDE ABLE TO BLOCK HER3/P85 INTERACTION FOR THE TREATMENT OF HER2 HYPER-EXPRESSING TUMOURS” (priority 2010, published 2013).
